# Values quoted from earlier work as cited in US20220409533A1, “LAG TIME REDUCTION/ICE SPRAY” (LTS LOHMANN THERAPIE-SYSTEME AG, priority 2019, published 2022).
# Details: transdermal application
compound,measurement,value
CN1CCCC1c1cccnc1 (stereo not shown) [nicotine],resorption delay time (lag time),6 h
